Publication PMC6594156 (Phytotherapy research : PTR, 2015)

How the values were obtained:
[1] = target: T1, UGT1A3 (Homo sapiens, UniProt P35503); test: recombinant UGT 4-MU glucuronidation, HPLC, single concentration […]; format: biochemical; settings: read-out: 1A3
T1 sequence (P35503 29-534): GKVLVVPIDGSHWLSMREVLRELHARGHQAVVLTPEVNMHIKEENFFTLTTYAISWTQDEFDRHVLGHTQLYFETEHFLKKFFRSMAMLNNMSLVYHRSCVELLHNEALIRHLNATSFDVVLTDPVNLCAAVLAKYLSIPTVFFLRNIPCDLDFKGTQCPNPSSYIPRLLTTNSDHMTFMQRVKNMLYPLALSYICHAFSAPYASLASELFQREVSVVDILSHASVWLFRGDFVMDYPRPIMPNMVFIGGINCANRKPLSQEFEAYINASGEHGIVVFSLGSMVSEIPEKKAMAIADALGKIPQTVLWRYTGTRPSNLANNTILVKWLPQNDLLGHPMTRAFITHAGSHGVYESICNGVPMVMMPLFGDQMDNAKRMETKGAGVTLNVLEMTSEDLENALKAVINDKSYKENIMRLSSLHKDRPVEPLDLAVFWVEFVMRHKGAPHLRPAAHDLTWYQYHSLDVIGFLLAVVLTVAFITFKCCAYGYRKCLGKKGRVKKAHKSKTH

[2] = target: T2, UGT2B7 (Homo sapiens, UniProt P16662); test: as above; format: biochemical; settings: read-out: 2B7
T2 sequence (P16662 24-529): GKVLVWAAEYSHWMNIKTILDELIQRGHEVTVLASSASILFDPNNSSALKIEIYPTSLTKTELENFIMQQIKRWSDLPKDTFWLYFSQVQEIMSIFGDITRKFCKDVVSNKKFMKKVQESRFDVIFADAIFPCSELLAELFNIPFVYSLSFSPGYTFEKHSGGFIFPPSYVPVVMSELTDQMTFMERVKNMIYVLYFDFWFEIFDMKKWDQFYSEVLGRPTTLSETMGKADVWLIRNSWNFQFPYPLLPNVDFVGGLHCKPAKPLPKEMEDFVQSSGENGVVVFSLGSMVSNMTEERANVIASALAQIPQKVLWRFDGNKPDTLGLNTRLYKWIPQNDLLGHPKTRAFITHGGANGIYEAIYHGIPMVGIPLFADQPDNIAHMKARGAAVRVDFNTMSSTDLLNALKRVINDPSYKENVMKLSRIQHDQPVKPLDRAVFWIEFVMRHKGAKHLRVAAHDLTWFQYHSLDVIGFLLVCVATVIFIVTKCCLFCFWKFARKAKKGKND

COc1cc2c(c(OC)c1OC)-c1c(cc(OC)c(OC)c1OC)C[C@H](C)[C@H](C)C2 [schisandrin A]
activity at 100 µM [1]: 0%

COc1cc2c(c(O)c1OC)-c1c(cc(OC)c(OC)c1OC)C[C@@H](C)[C@@H](C)C2 [schisanhenol]
activity at 100 µM [2]: 7.9%
